# Reference: a melting point compilation (Tetko et al.)
row,SMILES,melting point [°C]
1,CSc1nc(-c2ccccc2)c[nH]1,130 to 132
2,N#Cc1cc2ccccc2nc1Br,179 to 181
3,COc1cccc(N2C(=O)NC(=O)C2=O)c1,196 to 198
4,N#Cc1cccnc1-n1cncn1,201 to 203
5,Cc1cc(C)c(C)c(S(N)(=O)=O)c1C,149 to 151
6,OCc1cnn(-c2ccccc2)c1,63 to 67
7,COc1c([N+](=O)[O-])ccc(C=O)c1OC(F)F,95 to 97
8,CC(C)n1ncc2cc(C=O)c(Cl)nc21,78 to 80
9,Cc1ccccc1-n1nc(-c2ccccc2)cc1N,109 to 111
10,NNC(=O)CNc1ccccc1,126 to 128
11,COc1ccc(-c2nn(-c3ccccc3)cc2CC(=O)O)cc1,161 to 163
12,COc1cc(C=O)ccc1OCc1ccc(F)cc1,77 to 81
13,COc1ccccc1NCC(=O)NN,103 to 105
14,NC(=O)c1c(NC(=O)CCl)sc2c1CCCC2,236 to 238
15,O=C(O)C=Cc1cc(Br)cs1,169 to 171
16,Nc1cc(=O)[nH]c(S)n1,300 to 302
17,Clc1nc(CN2CCCCC2)nc2scc(-c3ccccc3)c12,79 to 81
18,O=C1Nc2c(Br)cc(F)cc2C1=O,215 to 217
19,O=C(O)C=Cc1ccc(OCc2ccccc2)cc1,141 to 143
20,Cc1ccccc1-c1cc(N)[nH]n1,168 to 170
21,c1cncc(-c2ncn[nH]2)c1,173 to 175
22,Fc1ccc(Br)c(-c2nn[nH]n2)c1,193 to 195
23,CCCCNc1c(N)n(CCC)c(=O)[nH]c1=O,201 to 203
24,C#CCOc1ccc(NC)cc1,46 to 48
25,O=C1CC2CCCc3cccc1c32 (centres undefined),95 to 97
26,CCOc1ccc(Nc2nnc(S)s2)cc1,170 to 172

row,SMILES,melting point [°C]
1,O=S1(=O)CCC(c2nnc(S)o2)C1 (centres undefined),181 to 183
2,Cn1ccnc1C(N)=S,134 to 136
3,CC(C)c1nn(-c2ccccc2)c(Cl)c1C=O,53 to 55
4,N#CCC(=O)NCc1ccco1,93 to 95
5,COc1cc(C=O)c(SC)cc1OC,111 to 113
6,NNC(=O)Cn1ccc(C(F)(F)F)n1,157 to 159
7,N#CC1(NC(=O)c2ccccc2)CCCCC1,135 to 137
8,Cn1cc(C#N)c(=O)n(C)c1=O,154 to 156
9,Cn1cc(-c2cccc(N)n2)cn1,132 to 134
10,COC(=O)C(CCl)NC(C)=O (centres undefined),74 to 76
11,CC(C)(C)OC(=O)N1CC(OCC(=O)O)C1,93 to 95
12,Cc1cc(Cl)c2cc([N+](=O)[O-])ccc2n1,140 to 142
13,Clc1ccc2c(n1)CCC2,69 to 71
14,CCc1ccc(-c2nn(-c3ccccc3)cc2C(=O)O)cc1,208 to 210
15,CC(=O)NC1(C(=O)O)CCCCCC1,196 to 198
16,O=C1CS/C(=C/C(=O)c2ccco2)N1,251 to 253
17,Cc1cc(=O)n2nc(CCl)sc2n1,183 to 185
18,CCOc1ccc(Oc2ccccc2N)cc1,158 to 160
19,NC(=S)Nc1ccccc1OC(F)(F)F,156 to 158
20,CCOC(=O)c1cnccn1,48 to 50
21,COc1cc(C#N)c2ccccc2n1,133 to 135
22,NCC(O)COc1cccc(F)c1 (centres undefined),84 to 86
23,Cn1nnc2cc(C(=O)O)cnc21,229 to 231
24,O=C(c1cccnc1)c1csc2ccccc12,109 to 111
25,CC(C)=C(C)C(=O)O,68 to 70
26,O=C(O)C=C1CCCC1,61 to 63

row,SMILES,melting point [°C]
1,CC(N)c1cccc(O)c1 (centres undefined),166 to 168
2,O=C(O)c1ccc(=O)n(-c2ccc(F)cc2)n1,239 to 241
3,CCc1sc(N)nc1-c1ccc(OC)cc1,112 to 114
4,Nc1ccccc1-c1cc(F)c(F)c(F)c1,64 to 66
5,Nc1nonc1-c1cccc(Cl)c1,133 to 135
6,Nc1nc2cnccc2s1,275 to 277
7,O=C(Cc1cccc(F)c1)c1cccc(F)c1,49 to 51
8,Cc1nsc(N)c1C(=O)O,158 to 160
9,C#CCOc1ccc(C(C)=O)cc1,72 to 74
10,N#Cc1ccc(Oc2ccc(N)cc2)cc1,110 to 112
11,Nc1cccc(Cn2[nH]c(=O)ccc2=O)c1,163 to 165
12,Sc1nnc(-c2cccs2)[nH]1,239 to 241
13,NCc1cccnc1N1CCOCC1,41 to 43
14,COc1ccc(N)cc1OCc1cccnc1,95 to 97
15,Cc1ccc2c(C3=CCNCC3)c[nH]c2c1,178 to 180
16,Cc1cc(N2CCCC(N)C2=O)n(C)n1 (centres undefined),88 to 90
17,COc1ccc(C)cc1-c1nn(CC(C)C)cc1C(=O)O,181 to 183
18,Cc1ccc(N)c(N)c1C,49 to 51
19,CCn1c2ccccc2c2cc(N=C=S)ccc21,118 to 120
20,CCCc1cc(N)n(C)n1,68 to 70
21,CC(C)NC(=O)C1CCCC(N)C1 (centres undefined),126 to 128
22,COCc1nc(Cl)c2c(-c3ccccc3)csc2n1,62 to 64
23,COC(=O)c1c[nH]c(C2CC2)n1,119 to 121
24,O=S(CCCl)c1cc(Cl)ccc1Cl (centres undefined),68 to 70
25,Clc1ccccc1-c1ncn[nH]1,154 to 156
26,c1ccc2oc(-c3ccncc3)cc2c1,73 to 75

# Now from value to compound:
row,melting point [°C],SMILES
1,88 to 90,CCS(=O)(=O)Nc1ccc(N)cc1
2,200 to 202,CC(=O)Nc1ccc(S(=O)(=O)N2CCC(=NO)CC2)cc1
3,104 to 106,COC(=O)C(=O)CC(=O)c1ccc(OC)cc1
4,105 to 107,O=S(=O)(Cl)c1cc(Cl)cc2c1OCC2
5,85 to 87,CCS(=O)(=O)NCC(=O)O
6,181 to 183,COc1ccccc1-c1nnc(SCC(=O)O)n1N
7,149 to 151,Cc1ccc(S(=O)(=O)N2CCCC(C(=O)O)C2)cc1 (centres undefined)
8,138 to 140,Cc1ccc(C(C)(C)C)cc1S(N)(=O)=O
9,241 to 243,Cc1cc(C(=O)CCl)c(C)n1-c1ccc(S(N)(=O)=O)cc1
10,179 to 181,COc1ccc(C(=O)O)cc1OC(F)F
11,218 to 220,Cc1nc2ccc(Cl)cc2cc1C(=O)O
12,99 to 101,CCc1ccccc1N1CC(C(=O)O)CC1=O (centres undefined)
13,118 to 120,CC(=O)Nc1ccc(N)c(C(F)(F)F)c1
14,101 to 103,COc1ccc(Cl)cc1NC(=O)CCl
15,119 to 121,CC(C)(C)OC(=O)Nc1cc2c(cc1N)OCCO2
16,239 to 241,O=C(O)c1cc(Br)c2occc2c1
17,90 to 92,NC(=S)C1CN(Cc2ccccc2)CCO1 (centres undefined)
18,143 to 145,O=C(NC1CCN(Cc2ccccc2)CC1)c1cccc(F)c1
19,186 to 188,CC(C)S(=O)(=O)c1ccc(C(=O)O)cc1
20,195 to 197,NC(=S)c1ccc(NC(=O)CC2CCCC2)cc1
21,93 to 96,CSCCC(NS(=O)(=O)c1ccc2c(c1)OCCO2)C(=O)O (centres undefined)
22,152 to 154,Cc1cc(C(=O)O)nn1-c1ccc(F)cc1

row,melting point [°C],SMILES
1,54 to 56,COCc1nc2cc(N)ccc2o1
2,163 to 165,O=C(O)C(Cc1ccccc1)N1CCCOC1=O (centres undefined)
3,89 to 91,CCOC(=O)c1oc2ccc(Br)cc2c1C
4,99 to 101,N#Cc1ccc(S(=O)(=O)NC2CC2)cc1
5,218 to 220,O=C(O)Cn1cc(C(F)(F)F)ccc1=O
6,98 to 100,Cc1ccc(N)c(C(=O)N(C)C)c1
7,165 to 167,O=C(O)CCc1cncc(F)c1
8,176 to 178,NS(=O)(=O)c1cc(C(=O)O)co1
9,154 to 156,COc1ccc(OCC(=O)O)c(C=O)c1
10,191 to 193,O=C(c1cc(S(=O)(=O)Cl)c[nH]1)N1CCCC1
11,258 to 260,O=C(O)C(Cc1ccccc1)NS(=O)(=O)c1ccccc1F (centres undefined)
12,121 to 123,O=C(O)c1sccc1S(=O)(=O)N1CCCCC1CCO (centres undefined)
13,76 to 78,Cc1ccc(O)c(S(=O)(=O)N(C)C)c1
14,229 to 231,O=C(O)c1cc(-c2ccc(F)cc2)nc2onc(C3CC3)c12
15,169 to 171,O=C(O)c1cc(S(=O)(=O)Cl)cc(Cl)c1F
16,59 to 61,CC1CN(C(CN)c2c(F)cccc2F)CC(C)O1 (centres undefined)
17,120 to 122,O=C(O)c1noc(-c2cccc(F)c2)n1
18,179 to 181,CCc1c(C(=O)O)nnn1-c1cccc(N)c1
19,252 to 254,Cc1nc(-c2ccncc2)[nH]c(=O)c1CC(=O)O
20,103 to 105,CC(Oc1ccc2c(c1)CCC2)C(=O)O (centres undefined)
21,96 to 98,O=C(O)CCCN1C(=O)c2ccccc2C1=O
22,313 to 315,Cn1cnc2cc(C(=O)O)ccc21

row,melting point [°C],SMILES
1,213 to 215,COc1ccc(NS(=O)(=O)c2ccc(O)c(N)c2)cc1
2,195 to 197,O=C1NC(=O)N(c2ccc3c(c2)OCO3)C1=O
3,234 to 236,O=C(O)CN1C(=O)COc2cc(Br)ccc21
4,173 to 175,O=S(=O)(Nc1cccc(Cl)c1)c1ccc2oc(S)nc2c1
5,180 to 182,Cc1cc(S(N)(=O)=O)cc([N+](=O)[O-])c1C
6,121 to 123,COc1ccc(CCC(=O)O)cc1N
7,73 to 75,CCOC(=O)Nc1ccc(N)cc1
8,93 to 95,CC(Oc1ccc(C(C)(C)C)cc1)C(=O)O (centres undefined)
9,69 to 71,CS(=O)(=O)c1ccc(F)c(N)c1
10,112 to 114,CSc1cc2c(cc1C=O)OCCO2
11,105 to 107,O=C(O)C(=O)c1ccc(Br)cc1
12,202 to 204,Cc1cc(C(=O)O)c2c(C(C)C)noc2n1
13,164 to 166,CC(=O)Nc1ccc(O)c(S(=O)(=O)Cl)c1
14,99 to 101,CN(C)C(=O)Sc1ccc2c(c1)CCCC2=O
15,208 to 210,CCCCNc1ccc(S(=O)(=O)N2CCCC2)cc1N
16,218 to 220,O=Cc1ccc(C(=O)O)cc1Cl
17,104 to 106,Cc1ccnc(-n2cc(S(=O)(=O)Cl)cn2)c1
18,99 to 101,COC(=O)CCNC(=O)c1ccc(N)cc1
19,159 to 161,Cc1c(C(=O)O)nnn1-c1ccc(OC(C)C)cc1
20,189 to 191,O=C(O)C1CCCN(C(=O)c2ccccc2)C1 (centres undefined)
21,50 to 52,C=CS(=O)(=O)c1cccc(Br)c1
22,142 to 144,CC(=O)CC(=O)Nc1ccc(I)cc1
